Consider three compounds from ChEMBL document CHEMBL1201862, “PubChem BioAssay data set” (2004).

Activity calls are given as the source filed them.

Assay [1] deals with Intestinal-type alkaline phosphatase (Homo sapiens, UniProt P09923). Put plainly: Dose Response confirmation of uHTS hits from a small molecule inhibitors of human intestinal alkaline phosphatase via a luminescent assay. [Related pubchem assays (depositor defined):AID2544, AID2574]. In kind it is functional.
The target of a further assay is T1, Protein RecA (Mycobacterium tuberculosis, UniProt P9WHJ3).
T1 sequence (P9WHJ3 whole entry): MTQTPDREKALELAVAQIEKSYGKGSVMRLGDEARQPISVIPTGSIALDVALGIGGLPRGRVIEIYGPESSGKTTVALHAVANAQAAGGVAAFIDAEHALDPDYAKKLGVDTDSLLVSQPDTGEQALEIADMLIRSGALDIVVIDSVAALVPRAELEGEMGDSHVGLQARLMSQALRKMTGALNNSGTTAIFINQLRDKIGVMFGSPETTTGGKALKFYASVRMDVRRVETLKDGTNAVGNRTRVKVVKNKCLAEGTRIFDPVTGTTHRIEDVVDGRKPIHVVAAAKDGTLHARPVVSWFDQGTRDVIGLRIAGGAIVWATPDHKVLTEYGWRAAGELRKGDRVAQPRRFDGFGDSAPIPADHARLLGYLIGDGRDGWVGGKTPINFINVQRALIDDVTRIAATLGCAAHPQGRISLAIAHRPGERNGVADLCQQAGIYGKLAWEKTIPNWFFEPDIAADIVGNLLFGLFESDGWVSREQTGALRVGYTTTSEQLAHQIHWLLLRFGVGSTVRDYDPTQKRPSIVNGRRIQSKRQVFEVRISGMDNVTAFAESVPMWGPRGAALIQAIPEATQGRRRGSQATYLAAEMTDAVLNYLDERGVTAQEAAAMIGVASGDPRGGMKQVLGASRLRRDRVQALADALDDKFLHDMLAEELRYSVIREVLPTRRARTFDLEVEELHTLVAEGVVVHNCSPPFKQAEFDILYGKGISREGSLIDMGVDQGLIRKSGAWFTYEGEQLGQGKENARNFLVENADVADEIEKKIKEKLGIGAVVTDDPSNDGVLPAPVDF
Put plainly: Fluorescence Cell-Free Homogeneous Dose Retest to Identify Inhibitors of RecA-Intein Splicing Activity. [Related pubchem assays (depositor defined):AID2097, AID2223, AID489010, AID492950]. In kind it is functional.

The target of assay [2] is Mothers against decapentaplegic homolog 3 (Homo sapiens, UniProt P84022). The experiment in a line: inhibitors of SMAD-driven TGF-beta signaling – dose response (AID 715). In kind it is functional.
Chain of Mothers against decapentaplegic homolog 3 (P84022 whole entry): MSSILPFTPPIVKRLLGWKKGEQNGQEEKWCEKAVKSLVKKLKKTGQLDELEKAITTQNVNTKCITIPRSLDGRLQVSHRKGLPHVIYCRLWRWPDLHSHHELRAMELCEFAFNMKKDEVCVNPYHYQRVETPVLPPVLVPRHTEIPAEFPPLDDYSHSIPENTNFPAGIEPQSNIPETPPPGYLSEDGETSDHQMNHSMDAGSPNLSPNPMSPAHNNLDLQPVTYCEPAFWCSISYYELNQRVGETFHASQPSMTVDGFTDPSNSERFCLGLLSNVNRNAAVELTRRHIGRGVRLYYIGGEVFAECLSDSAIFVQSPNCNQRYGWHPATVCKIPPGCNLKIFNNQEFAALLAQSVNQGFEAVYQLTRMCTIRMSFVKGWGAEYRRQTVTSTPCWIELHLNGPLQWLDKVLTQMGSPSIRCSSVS
The target of assay [3] is T2, Histone-lysine N-methyltransferase NSD2 (Homo sapiens, UniProt O96028).
T2 sequence (O96028 whole entry): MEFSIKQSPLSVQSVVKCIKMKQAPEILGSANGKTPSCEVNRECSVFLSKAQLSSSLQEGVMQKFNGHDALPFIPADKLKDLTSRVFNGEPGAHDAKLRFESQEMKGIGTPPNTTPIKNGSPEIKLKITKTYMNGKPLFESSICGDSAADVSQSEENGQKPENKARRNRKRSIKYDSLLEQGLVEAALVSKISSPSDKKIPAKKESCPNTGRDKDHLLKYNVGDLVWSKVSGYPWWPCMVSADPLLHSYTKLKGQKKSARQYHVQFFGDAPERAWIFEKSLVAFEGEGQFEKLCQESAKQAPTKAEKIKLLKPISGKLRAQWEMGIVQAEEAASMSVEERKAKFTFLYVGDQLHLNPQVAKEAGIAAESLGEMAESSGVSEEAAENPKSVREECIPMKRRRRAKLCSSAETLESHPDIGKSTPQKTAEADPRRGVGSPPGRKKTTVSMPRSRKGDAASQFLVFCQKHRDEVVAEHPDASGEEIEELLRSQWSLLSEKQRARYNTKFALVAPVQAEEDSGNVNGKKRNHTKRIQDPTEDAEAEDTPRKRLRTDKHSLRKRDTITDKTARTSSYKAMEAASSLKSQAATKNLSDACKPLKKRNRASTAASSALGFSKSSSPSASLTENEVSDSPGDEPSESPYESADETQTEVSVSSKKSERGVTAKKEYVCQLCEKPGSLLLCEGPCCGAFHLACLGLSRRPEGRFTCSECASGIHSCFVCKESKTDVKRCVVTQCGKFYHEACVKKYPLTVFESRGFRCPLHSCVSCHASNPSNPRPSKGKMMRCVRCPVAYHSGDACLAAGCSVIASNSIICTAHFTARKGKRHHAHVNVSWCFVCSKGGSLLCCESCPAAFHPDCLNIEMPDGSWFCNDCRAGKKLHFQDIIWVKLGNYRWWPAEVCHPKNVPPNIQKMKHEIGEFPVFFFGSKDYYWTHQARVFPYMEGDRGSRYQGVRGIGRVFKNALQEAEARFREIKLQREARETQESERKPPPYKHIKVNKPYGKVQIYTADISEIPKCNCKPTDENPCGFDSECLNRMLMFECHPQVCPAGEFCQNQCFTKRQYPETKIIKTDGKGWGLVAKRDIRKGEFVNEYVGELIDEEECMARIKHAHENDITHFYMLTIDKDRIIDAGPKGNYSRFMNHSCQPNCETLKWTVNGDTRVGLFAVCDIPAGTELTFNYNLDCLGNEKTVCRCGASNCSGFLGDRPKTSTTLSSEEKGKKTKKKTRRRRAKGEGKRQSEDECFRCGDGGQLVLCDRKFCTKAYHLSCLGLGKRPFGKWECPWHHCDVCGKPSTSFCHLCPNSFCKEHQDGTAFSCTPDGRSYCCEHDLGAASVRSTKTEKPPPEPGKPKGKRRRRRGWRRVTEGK
In kind it is biochemical.

Assay [4] concerns the target T3, Sentrin-specific protease 8 (Homo sapiens, UniProt Q96LD8).
T3 sequence (Q96LD8 whole entry): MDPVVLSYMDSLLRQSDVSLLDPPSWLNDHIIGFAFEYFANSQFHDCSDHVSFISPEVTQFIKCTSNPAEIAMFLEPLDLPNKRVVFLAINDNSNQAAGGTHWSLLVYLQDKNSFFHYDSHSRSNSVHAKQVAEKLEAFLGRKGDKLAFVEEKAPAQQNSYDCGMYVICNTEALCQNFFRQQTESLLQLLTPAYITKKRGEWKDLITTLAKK
In kind it is functional.

Assay [5] deals with T3, Sentrin-specific protease 8. In kind it is functional. This is another data set of the same source.
Assay [6] in a line: viability loss in THP-1 monocytes – THP-1 cells, cytotoxicity control for Vif-APOBEC3G degradation inhibitor project, dose response (AID 1117359). In kind it is functional. The following applies: THP-1.

Chain of Intestinal-type alkaline phosphatase (P09923 whole entry): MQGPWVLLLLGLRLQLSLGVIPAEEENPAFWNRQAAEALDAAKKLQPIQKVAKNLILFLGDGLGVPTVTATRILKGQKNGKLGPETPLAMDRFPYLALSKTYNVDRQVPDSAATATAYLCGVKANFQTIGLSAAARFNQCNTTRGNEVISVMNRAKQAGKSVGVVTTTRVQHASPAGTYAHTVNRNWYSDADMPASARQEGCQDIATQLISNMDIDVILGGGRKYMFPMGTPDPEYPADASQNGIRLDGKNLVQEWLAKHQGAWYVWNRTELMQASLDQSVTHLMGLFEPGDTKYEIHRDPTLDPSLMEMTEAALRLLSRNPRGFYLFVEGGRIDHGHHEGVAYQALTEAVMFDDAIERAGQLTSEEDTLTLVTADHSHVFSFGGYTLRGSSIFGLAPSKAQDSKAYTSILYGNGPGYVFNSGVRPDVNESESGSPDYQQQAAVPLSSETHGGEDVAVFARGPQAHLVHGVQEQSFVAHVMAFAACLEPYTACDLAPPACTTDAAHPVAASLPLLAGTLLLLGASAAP

As to `Nc1c(N2CCCC2)cc(Cl)c2nonc12`, the IC50 in assay [1] is > 100 µM (inactive); in assay [2], 18.3 µM (active). Moreover, the concentration for a half-maximal effect (EC50) on Protein RecA is 1.65 µM (active).
Take `O=C(NNc1cc(N2CCOCC2)nc(N2CCOCC2)n1)c1ccc([N+](=O)[O-])cc1`: the concentration at half-maximal activity (AC50) in assay [3] is 2.56 µM (active). In addition, the IC50 in assay [4] was 3.2 µM (active); in assay [5], 2.86 µM (active).
`Oc1ccc(/N=C/c2ccc(OCc3ccccc3)cc2)cc1`: the half-maximal cytotoxic concentration (CC50) in assay [6] was > 40 µM (active). In addition, the EC50 at Protein RecA is > 380 µM (inactive).

What is called IC50 is the concentration at which inhibition is half-maximal. A word on the EC50: it is the concentration giving half of the maximal effect. A word on the AC50: it is the concentration at which the activity in the assay is half-maximal. Broadly, the CC50 is the concentration that lowers cell viability or growth by half.
